Data reported in patent publication US10294202B2, “Pyrrolidinones as herbicides” (FMC Corporation, priority 2013, dated 2019).

Key:
pigweed = assay: Test A pre-/postemergence herbicide test; assay type: in vivo, Amaranthus retroflexus
Summary of the method: (§1)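 Visual injury ratings, 0 = no effect, 100 = complete control, taken ~10 days after treatment against untreated greenhouse controls. Preemergence: directed soil spray onto seeded loam/sand pots. Postemergence: spray onto plants at one- to two-leaf stage, 2–10 cm tall.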

wheat = assay: Test A pre-/postemergence herbicide test; assay type: in vivo, Triticum aestivum; conditions: Postemergence
Summary of the method: as §1

blackgrass = assay: Test C pre-/postemergence herbicide test; assay type: in vivo, Alopecurus myosuroides
Summary of the method: (§2)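 Pre- and postemergence greenhouse screen. Preemergence treatment went onto freshly planted seeds in loam–sand soil; postemergence treatment went onto plants 2 to 18 cm tall at the 1- to 4-leaf stage in sphagnum peat/vermiculite medium. Scoring at 13 to 15 days used a 0–100 control scale.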

ryegrass, Italian = assay: Test C pre-/postemergence herbicide test; assay type: in vivo, Lolium multiflorum
Summary of the method: as §2

galium = assay: Test C pre-/postemergence herbicide test; assay type: in vivo, Galium aparine
Summary of the method: as §2

corn = assay: Test C pre-/postemergence herbicide test; assay type: in vivo, Zea mays
Summary of the method: as §2

morningglory = assay: Test C pre-/postemergence herbicide test; assay type: in vivo, Ipomoea coccinea
Summary of the method: as §2

nutsedge, yellow = assay: Test C pre-/postemergence herbicide test; assay type: in vivo, Cyperus esculentus
Summary of the method: as §2

barnyardgrass = assay: Test C pre-/postemergence herbicide test; assay type: in vivo, Echinochloa crus-galli
Summary of the method: as §2

velvetleaf = assay: Test C pre-/postemergence herbicide test; assay type: in vivo, Abutilon theophrasti
Summary of the method: as §2

[1] = Postemergence, 125 g ai/ha, visual rating on 0 to 100 scale (0 no effect, 100 complete control), approx. 10 days
[2] = Postemergence, 500 g ai/ha, 0 to 100 scale (0 no effect, 100 complete control)
[3] = Preemergence, 125 g ai/ha, 0 to 100 scale where 0 is no effect and 100 is complete control
[4] = Preemergence, 500 g ai/ha, visual rating on 0 to 100 scale (0 no effect, 100 complete control)
[5] = 125 g ai/ha, visual rating on 0 to 100 scale (0 no effect, 100 complete control), approx. 10 days
[6] = 500 g ai/ha, 0 to 100 scale (0 no effect, 100 complete control)
[7] = Postemergence, 31 g ai/ha, scale 0 to 100 (0 no effect, 100 complete control)
[8] = Postemergence, 62 g ai/ha, scale 0 (no effect) to 100 (complete control)
[9] = Postemergence, 125 g ai/ha, scale 0 to 100 (0 no effect, 100 complete control)
[10] = Postemergence, 250 g ai/ha, scale 0 to 100 (0 no effect, 100 complete control)
[11] = Preemergence, 31 g ai/ha, scale 0 to 100, 0 is no effect and 100 is complete control
[12] = Preemergence, 62 g ai/ha, scale 0 to 100 (0 no effect, 100 complete control)
[13] = Preemergence, 125 g ai/ha, scale 0 to 100
[14] = Preemergence, 125 g ai/ha, scale 0 to 100 (0 no effect, 100 complete control)

## O=C1NCC(c2cccc(Br)c2)C1C(=O)Nc1ccc(F)c(F)c1F (stereo not shown) [Compound 310]
pigweed; [1]
  Plant response rating, Pigweed: 0
pigweed; [2]
  Plant response rating, Pigweed: 0
pigweed; [3]
  Plant response rating, Pigweed: 40
pigweed; [4]
  Pigweed plant response rating: 40
wheat; [5]
  Plant response rating, Wheat: 30
wheat; [6]
  Plant response rating, Wheat: 50
blackgrass; [7]
  Plant response rating, Blackgrass: 0
blackgrass; [8]
  Plant response rating, Blackgrass: 0
blackgrass; [9]
  Plant response rating, Blackgrass: 5
blackgrass; [10]
  Plant response rating, Blackgrass: 5
blackgrass; [11]
  Blackgrass plant response rating: 0
blackgrass; [12]
  Blackgrass plant response rating: 5
blackgrass; [13]
  Plant response rating, Blackgrass: 50
blackgrass; Preemergence, 250 g ai/ha
  Plant response rating (scale of 0 to 100), Blackgrass: 45
ryegrass, Italian; [7]
  Plant response rating, Ryegrass, Italian: 0
ryegrass, Italian; [8]
  Plant response rating, Ryegrass, Italian: 0
ryegrass, Italian; [9]
  Plant response rating, Ryegrass, Italian: 0
ryegrass, Italian; [10]
  Plant response rating, Ryegrass, Italian: 5
ryegrass, Italian; [12]
  Ryegrass, Italian plant response rating: 0
ryegrass, Italian; [13]
  Plant response rating, Ryegrass, Italian: 20
ryegrass, Italian; Preemergence, 250 g ai/ha
  Plant response rating (scale of 0 to 100), Ryegrass, Italian: 25
galium; [7]
  Plant response rating, Galium: 35
galium; [8]
  Plant response rating, Galium: 50
galium; [9]
  Plant response rating, Galium: 50
galium; [10]
  Plant response rating, Galium: 65
galium; [11]
  Galium plant response rating: 0
galium; [12]
  Galium plant response rating: 0
galium; [13]
  Plant response rating, Galium: 0
galium; Preemergence, 250 g ai/ha
  Plant response rating (scale of 0 to 100), Galium: 70
corn; [7]
  Plant response rating, Corn: 0
corn; [8]
  Plant response rating, Corn: 0
corn; [9]
  Plant response rating, Corn: 60
corn; [10]
  Plant response rating, Corn: 30
corn; [11]
  Corn plant response rating: 0
corn; [12]
  Corn plant response rating: 0
corn; [13]
  Plant response rating, Corn: 55
corn; Preemergence, 250 g ai/ha
  Plant response rating (scale of 0 to 100), Corn: 55
morningglory; [7]
  Plant response rating, Morningglory: 10
morningglory; [8]
  Plant response rating, Morningglory: 0
morningglory; [9]
  Plant response rating, Morningglory: 10
morningglory; [10]
  Plant response rating, Morningglory: 70
morningglory; [11]
  Morningglory plant response rating: 0
morningglory; [12]
  Morningglory plant response rating: 0
morningglory; [13]
  Plant response rating, Morningglory: 5
morningglory; Preemergence, 250 g ai/ha
  Plant response rating (scale of 0 to 100), Morningglory: 5
nutsedge, yellow; [7]
  Plant response rating, Nutsedge, Yellow: 0
nutsedge, yellow; [8]
  Plant response rating, Nutsedge, Yellow: 0
nutsedge, yellow; [9]
  Plant response rating, Nutsedge, Yellow: 0
nutsedge, yellow; [10]
  Plant response rating, Nutsedge, Yellow: 25
nutsedge, yellow; [11]
  Nutsedge, Yellow plant response rating: 0
nutsedge, yellow; [12]
  Nutsedge, Yellow plant response rating: 0
nutsedge, yellow; [13]
  Plant response rating, Nutsedge, Yellow: 0
nutsedge, yellow; Preemergence, 250 g ai/ha
  Plant response rating (scale of 0 to 100), Nutsedge, Yellow: 0
barnyardgrass; [7]
  Plant response rating, Barnyardgrass: 5
barnyardgrass; [8]
  Plant response rating, Barnyardgrass: 25
barnyardgrass; [9]
  Plant response rating, Barnyardgrass: 50
barnyardgrass; [10]
  Plant response rating, Barnyardgrass: 75
barnyardgrass; [11]
  Barnyardgrass plant response rating: 50
barnyardgrass; [12]
  Barnyardgrass plant response rating: 90
barnyardgrass; [14]
  Plant response rating, Barnyardgrass: 90
barnyardgrass; Preemergence, 250 g ai/ha
  Plant response rating (scale of 0 to 100; 0 is no effect, 100 is complete control), Barnyardgrass: 95
velvetleaf; [7]
  Plant response rating, Velvetleaf: 35
velvetleaf; [8]
  Plant response rating, Velvetleaf: 0
velvetleaf; [9]
  Plant response rating, Velvetleaf: 0
velvetleaf; [10]
  Plant response rating, Velvetleaf: 40
velvetleaf; [12]
  Velvetleaf plant response rating: 0
velvetleaf; [13]
  Plant response rating, Velvetleaf: 5
velvetleaf; Preemergence, 250 g ai/ha
  Plant response rating (scale of 0 to 100), Velvetleaf: 35

## CC(C)c1cccc(C2CNC(=O)C2C(=O)Nc2ccccc2F)c1 (stereo not shown) [Compound 318]
pigweed; [1]
  Plant response rating, Pigweed: 20
pigweed; [2]
  Plant response rating, Pigweed: 20
pigweed; [3]
  Plant response rating, Pigweed: 0
pigweed; [4]
  Pigweed plant response rating: 20
wheat; [5]
  Plant response rating, Wheat: 20
wheat; [6]
  Plant response rating, Wheat: 30
blackgrass; [11]
  Blackgrass plant response rating: 0
blackgrass; [12]
  Blackgrass plant response rating: 0
blackgrass; [13]
  Plant response rating, Blackgrass: 30
blackgrass; Preemergence, 250 g ai/ha
  Plant response rating (scale of 0 to 100), Blackgrass: 45
ryegrass, Italian; [12]
  Ryegrass, Italian plant response rating: 0
ryegrass, Italian; [13]
  Plant response rating, Ryegrass, Italian: 0
galium; [11]
  Galium plant response rating: 0
galium; [12]
  Galium plant response rating: 0
galium; [13]
  Plant response rating, Galium: 40
galium; Preemergence, 250 g ai/ha
  Plant response rating (scale of 0 to 100), Galium: 100
corn; [11]
  Corn plant response rating: 0
corn; [12]
  Corn plant response rating: 0
corn; [13]
  Plant response rating, Corn: 10
corn; Preemergence, 250 g ai/ha
  Plant response rating (scale of 0 to 100), Corn: 60
morningglory; [11]
  Morningglory plant response rating: 30
morningglory; [12]
  Morningglory plant response rating: 40
morningglory; [13]
  Plant response rating, Morningglory: 30
morningglory; Preemergence, 250 g ai/ha
  Plant response rating (scale of 0 to 100), Morningglory: 40
nutsedge, yellow; [11]
  Nutsedge, Yellow plant response rating: 0
nutsedge, yellow; [12]
  Nutsedge, Yellow plant response rating: 0
nutsedge, yellow; [13]
  Plant response rating, Nutsedge, Yellow: 0
nutsedge, yellow; Preemergence, 250 g ai/ha
  Plant response rating (scale of 0 to 100), Nutsedge, Yellow: 0
barnyardgrass; [11]
  Barnyardgrass plant response rating: 80
barnyardgrass; [12]
  Barnyardgrass plant response rating: 95
barnyardgrass; [14]
  Plant response rating, Barnyardgrass: 95
barnyardgrass; Preemergence, 250 g ai/ha
  Plant response rating (scale of 0 to 100; 0 is no effect, 100 is complete control), Barnyardgrass: 95
velvetleaf; [12]
  Velvetleaf plant response rating: 10
velvetleaf; [13]
  Plant response rating, Velvetleaf: 25

## CC(C)c1cccc(C2CNC(=O)C2C(=O)Nc2cccc(F)c2F)c1 (stereo not shown) [Compound 319]
pigweed; [1]
  Plant response rating, Pigweed: 0
pigweed; [2]
  Plant response rating, Pigweed: 20
pigweed; [3]
  Plant response rating, Pigweed: 0
pigweed; [4]
  Pigweed plant response rating: 20
wheat; [5]
  Plant response rating, Wheat: 20
wheat; [6]
  Plant response rating, Wheat: 50
blackgrass; [11]
  Blackgrass plant response rating: 40
blackgrass; [12]
  Blackgrass plant response rating: 0
blackgrass; [13]
  Plant response rating, Blackgrass: 30
blackgrass; Preemergence, 250 g ai/ha
  Plant response rating (scale of 0 to 100), Blackgrass: 80
ryegrass, Italian; [12]
  Ryegrass, Italian plant response rating: 10
ryegrass, Italian; [13]
  Plant response rating, Ryegrass, Italian: 20
galium; [11]
  Galium plant response rating: 95
galium; [12]
  Galium plant response rating: 70
galium; [13]
  Plant response rating, Galium: 80
galium; Preemergence, 250 g ai/ha
  Plant response rating (scale of 0 to 100), Galium: 85
corn; [11]
  Corn plant response rating: 0
corn; [12]
  Corn plant response rating: 30
corn; [13]
  Plant response rating, Corn: 60
corn; Preemergence, 250 g ai/ha
  Plant response rating (scale of 0 to 100), Corn: 65
morningglory; [11]
  Morningglory plant response rating: 55
morningglory; [12]
  Morningglory plant response rating: 40
morningglory; [13]
  Plant response rating, Morningglory: 45
morningglory; Preemergence, 250 g ai/ha
  Plant response rating (scale of 0 to 100), Morningglory: 40
nutsedge, yellow; [11]
  Nutsedge, Yellow plant response rating: 0
nutsedge, yellow; [12]
  Nutsedge, Yellow plant response rating: 0
nutsedge, yellow; [13]
  Plant response rating, Nutsedge, Yellow: 0
nutsedge, yellow; Preemergence, 250 g ai/ha
  Plant response rating (scale of 0 to 100), Nutsedge, Yellow: 30
barnyardgrass; [11]
  Barnyardgrass plant response rating: 90
barnyardgrass; [12]
  Barnyardgrass plant response rating: 95
barnyardgrass; [14]
  Plant response rating, Barnyardgrass: 95
barnyardgrass; Preemergence, 250 g ai/ha
  Plant response rating (scale of 0 to 100; 0 is no effect, 100 is complete control), Barnyardgrass: 98
velvetleaf; [12]
  Velvetleaf plant response rating: 20
velvetleaf; [13]
  Plant response rating, Velvetleaf: 45
